Where two headings read alike, the source gives them in different places.

Data set [1] addresses T1, CFTR-mediated short-circuit current in F508del/MF-HBE cells (Homo sapiens, UniProt P13569, DEL508-508).
T1 construct: human bronchial epithelial (HBE) cells derived from CF subjects; endogenous in cells; host or cells: primary human bronchial epithelial cells from CF subjects (F508del/MF-HBE)
Description: HBE assay: Ussing chamber assay of CFTR-mediated short-circuit currents. Format: cell-based. The procedure:
(§1) 1. Ussing Chamber Assay of CFTR-Mediated Short-Circuit Currents
(§2) Ussing chamber experiments were performed using human bronchial epithelial (HBE) cells derived from CF subjects heterozygous for F508del and a minimal function CFTR mutation (F508del/MF-HBE) and cultured as previously described (Neuberger T, Burton B, Clark H, Van Goor F Methods Mol Biol 2011:741:39-54). After four days the apical media was removed, and the cells were grown at an air liquid interface for >14 days prior to use.
(§3) To isolate the CFTR-mediated short-circuit (ISC) current, F508del/MF-HBE grown on Costar® Snapwell™ cell culture inserts were mounted in an Ussing chamber and the transepithelial ISC was measured under voltage-clamp recording conditions (Vhold=0 mV) at 37° C. The basolateral solution contained (in mM) 145 NaCl, 0.83 K2HPO4, 3.3 KH2PO4, 1.2 MgCl2, 1.2 CaCl2), 10 Glucose, 10 HEPES (pH adjusted to 7.4 with NaOH) and the apical solution contained (in mM) 145 NaGluconate, 1.2 MgCl2, 1.2 CaCl2, 10 glucose, 10 HEPES (pH adjusted to 7.4 with NaOH) and 30 μM amiloride to block the epithelial sodium channel. Forskolin (20 μM) was added to the apical surface to activate CFTR, followed by apical addition of a CFTR inhibitor cocktail consisting of BPO, GlyH-101, and CFTR inhibitor 172 (each at 20 μM final assay concentration) to specifically isolate CFTR currents. The CFTR-mediated ISC (μA/cm^2) for each condition was determined from the peak forskolin response to the steady-state current following inhibition.
(§4) 2. Identification of Corrector Compounds
(§5) The activity of the CFTR corrector compounds on the CFTR-mediated ISC was determined in Ussing chamber studies as described above. The F508del/MF-HBE cell cultures were either incubated with the corrector compounds at a range of concentrations in combination with 1 μM Ivacaftor or were incubated with the corrector compounds at a single fixed concentration of 10 μM in combination with 1 μM Ivacaftor for 18-24 hours at 37° C. and in the presence of 20% human serum. The concentration of corrector compounds with 1 μM Ivacaftor during the 18-24 hours incubations was kept constant throughout the Ussing chamber measurement of the CFTR-mediated ISC to ensure compounds were present throughout the entire experiment.
as §3, with “CaCl2,” for “CaCl2),”

Data set [2] concerns the target T1, CFTR-mediated short-circuit current in F508del/MF-HBE cells. As to the kind of experiment: HBE2 assay: Ussing chamber assay of CFTR-mediated short-circuit currents. The format is cell-based. The procedure:
as §1, §2
as §3, with “CaCl2,” for “CaCl2),”
as §4
as §5, with “44 nM (6R,12R)-17-amino-12-methyl-6,15-bis(trifluoromethyl)-13,19-dioxa-3,4,18-triazatricyclo[12.3.1.12,5]nonadeca-1(18),2,4,14,16-pentaen-6-ol” for “1 μM Ivacaftor”, “1 and 3” for “10”, “[…]” for “20%”

For data set [3] the following is noted: from 3-[[4-[(1-benzylpiperazin-2-yl)methoxy]-6-(2,6-dimethylphenyl)pyrimidin-2-yl]sulfamoyl]benzoic acid (Dihydrochloride salt); amide bond; 14-membered ring; HATU/DIEA; DMF; 12.7 mM; 25.0 °C; 3 steps.
Where [4] appears, read: F508del/MF-HBE cells, 18-24 hours incubation.
[5] abbreviates: F508del/MF-HBE, 18-24 hours with 1 μM Ivacaftor, 20% human serum, read-out: HBE EC50.

T1 sequence (P13569 with tags, fused parts or gaps DEL508-508): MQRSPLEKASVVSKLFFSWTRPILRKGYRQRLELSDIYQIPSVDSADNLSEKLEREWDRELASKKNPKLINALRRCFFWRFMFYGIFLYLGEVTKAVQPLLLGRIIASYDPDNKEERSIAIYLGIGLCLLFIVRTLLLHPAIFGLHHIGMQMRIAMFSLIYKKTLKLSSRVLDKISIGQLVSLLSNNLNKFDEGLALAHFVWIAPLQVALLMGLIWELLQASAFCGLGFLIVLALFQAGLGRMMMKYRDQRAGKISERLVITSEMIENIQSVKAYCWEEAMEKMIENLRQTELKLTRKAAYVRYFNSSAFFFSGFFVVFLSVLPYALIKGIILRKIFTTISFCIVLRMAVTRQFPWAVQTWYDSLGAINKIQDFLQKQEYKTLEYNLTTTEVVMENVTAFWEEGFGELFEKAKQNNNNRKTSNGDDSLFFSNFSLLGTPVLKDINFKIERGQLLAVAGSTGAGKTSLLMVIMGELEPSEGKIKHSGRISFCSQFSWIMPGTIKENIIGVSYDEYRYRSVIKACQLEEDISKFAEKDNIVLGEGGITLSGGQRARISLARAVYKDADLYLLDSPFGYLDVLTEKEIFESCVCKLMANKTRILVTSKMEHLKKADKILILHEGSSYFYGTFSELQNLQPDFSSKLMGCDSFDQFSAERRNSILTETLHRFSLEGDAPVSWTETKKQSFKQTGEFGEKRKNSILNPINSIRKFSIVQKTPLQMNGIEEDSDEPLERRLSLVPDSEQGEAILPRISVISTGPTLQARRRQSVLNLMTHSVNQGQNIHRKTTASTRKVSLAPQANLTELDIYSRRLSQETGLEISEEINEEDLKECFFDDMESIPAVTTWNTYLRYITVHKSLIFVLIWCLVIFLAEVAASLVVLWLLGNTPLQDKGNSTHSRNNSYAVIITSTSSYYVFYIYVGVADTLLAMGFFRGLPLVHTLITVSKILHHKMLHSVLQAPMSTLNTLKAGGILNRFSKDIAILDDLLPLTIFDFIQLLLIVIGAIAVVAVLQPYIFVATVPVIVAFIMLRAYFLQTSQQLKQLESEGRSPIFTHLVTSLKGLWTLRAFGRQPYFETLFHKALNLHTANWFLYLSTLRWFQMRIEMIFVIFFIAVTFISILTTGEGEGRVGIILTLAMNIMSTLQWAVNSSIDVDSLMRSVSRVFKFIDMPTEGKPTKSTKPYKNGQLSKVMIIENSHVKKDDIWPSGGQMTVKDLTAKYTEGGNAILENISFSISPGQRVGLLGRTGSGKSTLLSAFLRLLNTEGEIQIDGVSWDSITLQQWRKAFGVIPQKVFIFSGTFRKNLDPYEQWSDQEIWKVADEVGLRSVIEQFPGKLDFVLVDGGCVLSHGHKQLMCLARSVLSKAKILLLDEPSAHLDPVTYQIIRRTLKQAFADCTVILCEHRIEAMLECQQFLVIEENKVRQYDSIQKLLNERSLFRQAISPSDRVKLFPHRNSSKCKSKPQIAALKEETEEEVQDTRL

In the case of `Cc1cccc(C)c1-c1cc2nc(n1)NS(=O)(=O)c1cccc(c1)C(=O)N1[C@@H](c3ncc(OC(C)C)cn3)CC[C@@H](CC(C)C)[C@H]1CO2` (single isomer, unassigned) [Compound 393, 13-(2,6-dimethylphenyl)-7-isobutyl-4-(5-isopropoxypyrimidin-2-yl)-17,17-dioxo-10-oxa-17λ^6-thia-3,14,16,23-tetrazatetracyclo[16.3.1.111,15.03,8]tricosa-1(21),11,13,15(23),18(22),19-hexaen-2-one], the “HBE Activity at 10 μM (%)” value in data set [1] is listed as “+++ (+++ is >60%)”. Moreover, the activation at 3 µM in data set [2] is more than 60%.

The term EC50 denotes the midpoint of the concentration-response curve. Consider `Cc1cccc(C)c1-c1cc2nc(n1)NS(=O)(=O)c1cccc(c1)C(=O)N1[C@@H](c3ncc(OC(C)C)cn3)CC[C@@H](C(C)C)[C@H]1CO2` (single isomer, unassigned) [Compound 389, 13-(2,6-dimethylphenyl)-4-(5-isopropoxypyrimidin-2-yl)-7-isopropyl-17,17-dioxo-10-oxa-17λ^6-thia-3,14,16,23-tetrazatetracyclo[16.3.1.111,15.03,8]tricosa-1(21),11,13,15(23),18(22),19-hexaen-2-one], for which, in data set [1] (setting [4]), the EC50 is 1000 to 3000 nM and the “HBE Max activity (%)” value is on record as “+ (+ is <30+)”. Take `Cc1cccc(C)c1-c1cc2nc(n1)NS(=O)(=O)c1cccc(c1)C(=O)N1[C@@H](c3ncc(OC(C)C)cn3)CC[C@@H](C(C)C)[C@H]1CO2` (single isomer, unassigned) [Compound 388, 13-(2,6-Dimethylphenyl)-4-(5-isopropoxypyrimidin-2-yl)-7-isopropyl-17,17-dioxo-10-oxa-17λ^6-thia-3,14,16,23-tetrazatetracyclo[16.3.1.111,15.03,8]tricosa-1(21),11,13,15(23),18(22),19-hexaen-2-one]: in data set [1] (setting [4]), the concentration for a half-maximal effect (EC50) is less than 1000 nM and the “HBE Max activity (%)” value is on record as “+++ (+++ is >60%)”.

For the compound `Cc1cccc(C)c1-c1cc2nc(n1)NS(=O)(=O)c1cccc(c1)C(=O)N1C(c3ncc(OC(C)C)cn3)CCC(C(C)C)C1CO2` (stereo not drawn) [Compound 371], the Emax in data set [1] (F508del/MF-HBE, 18-24 hours with 1 μM Ivacaftor, 20% human serum, compared to known Vertex corrector with Tezacaftor and Ivacaftor, read-out: HBE Max Activity (%)) is more than 60%. In addition, the EC50 in data set [1] (setting [5]) is less than 1000 nM.

With `Cc1cccc(C)c1-c1cc2nc(n1)NS(=O)(=O)c1cccc(c1)C(=O)N1[C@@H](c3cccc(N(C)C4CC5(CC5)C4)n3)CC[C@@H](C(C)C)[C@H]1CO2` (single isomer, unassigned) [Compound 391, 13-(2,6-dimethylphenyl)-7-isopropyl-4-[6-[methyl(spiro[2.3]hexan-5-yl)amino]-2-pyridyl]-17,17-dioxo-10-oxa-17λ^6-thia-3,14,16,23-tetrazatetracyclo[16.3.1.111,15.03,8]tricosa-1(21),11,13,15(23),18(22),19-hexaen-2-one], the “HBE Activity at 10 μM (%)” value in data set [1] was “++ (++ is 30-60%)”. For the compound `Cc1cccc(C)c1-c1cc2nc(n1)NS(=O)(=O)c1cccc(c1)C(=O)N1[C@H](CCC[C@@H]1c1ccccn1)CO2` [Compound 327], the “HBE Max activity (%)” value in data set [1] (F508del/MF-HBE, 18-24 hours with 1 μM Ivacaftor, 20% human serum, compared to known Vertex corrector with Tezacaftor and Ivacaftor) is listed as “++ (++ is 30-60%)”. Further, the EC50 in data set [1] (setting [5]) lay within 3000 to 30000 nM. Turning to `Cc1cccc(C)c1-c1cc2nc(n1)NS(=O)(=O)c1cccc(c1)C(=O)N1CCNC(CO2)C1` (stereo not drawn), the ring closure, crude yield in data set [3] was 22%.

Values taken from patent publication US20240018161A1, “MODULATORS OF CYSTIC FIBROSIS TRANSMEMBRANE CONDUCTANCE REGULATOR” (VERTEX PHARMACEUTICALS INCORPORATED, priority 2020, published 2024).
